Data on 41 molecules can be found in patent US8703821B2, “Dialkyl ether delivery agents” (Emisphere Technologies Inc., priority 2006, dated 2014).

The nature of series [1]: Insulin oral delivery in rats. It is filed as in vivo, rat. The settings on record: oral gavage to fasted male Sprague-Dawley rats; dosing solution delivery agent 200 mg/ml + human recombinant insulin 0.5 mg/ml.
Series [2] in a line: Heparin (LMWH) oral delivery in rats, plasma LMWH by anti-Factor Xa assay. It is filed as in vivo, rat. The settings on record: male Sprague-Dawley rats, delivery agent 300 mg/kg, LMWH 100 IU/kg, volume 3 ml/kg, 25% aqueous propylene glycol. The method, then: Oral dosing solutions containing delivery agent compound and heparin sodium USP were prepared in 25% aqueous propylene glycol. Either the sodium salt of the delivery agent compound was used or the free acid was converted to the sodium salt with one equivalent of sodium hydroxide. The delivery agent compound and heparin (about 166-182 IU/mg) were mixed by vortex as dry powders. This dry mixture was dissolved in 25% v/v aqueous propylene glycol, vortexed, and placed in a sonicator (about 37° C.). The pH was adjusted to about 7 (6.5-8.5) with aqueous NaOH (2N). The dosing solution was sonicated to produce a clear solution. The final volume was adjusted to about 3.0 ml.
Male Sprague-Dawley rats were fasted for 24 hours and anesthetized with ketamine hydrochloride (88 mg/kg) intramuscularly immediately prior to dosing and again as needed to maintain anesthesia. A dosing group of five animals were administered one of the dosing solutions. An 11 cm Rusch 8 French catheter was adapted to a 1 ml syringe with a pipette tip. […]
Citrated blood samples were collected by cardiac puncture following the administration of ketamine (88 mg/kg), typically at 0.25, 0.5, 1.0 and 1.5 hours after dosing. […] LMWH absorption was verified by an increase in plasma LMWH measured by the anti-Factor Xa assay CHROMOSTRATE™ Heparin anti-Xa assay (available from Organon Teknika Corporation, Durham, N.C.).

In the case of `Cc1ccccc1CCOCC(=O)O` [Compound 1, (2-o-Tolyl-ethoxy)-acetic acid], in series [1], the “% Glucose Cmin (Rat)” value is given as −36.5%.
Broadly, the melting point is the temperature, or range, at which the solid turns liquid. For `Cc1ccc(CCOCC(=O)O)cc1` [Compound 2], the melting point is 50 to 52 °C. Also, the “% Glucose Cmin (Rat)” value in series [1] is −54.3%.
With `Cc1cccc(CCOCC(=O)O)c1` [Compound 3, Sodium (2-m-Tolyl-ethoxy)-acetate], the “% Glucose Cmin (Rat)” value in series [1] is on record as −30.1%.
For the molecule `O=C(O)COCCc1ccc(Cl)cc1` [Compound 4], the melting point was in the range of 51 to 52 °C. Moreover, the “% Glucose Cmin (Rat)” value in series [1] was −54.3%.
`O=C(O)COCCc1ccccc1Cl` [Compound 5]: in series [1], the “% Glucose Cmin (Rat)” value is listed as −39.7%.
Still for that read-out and setting: as for `O=C(O)COCCc1cccc(Cl)c1` [Compound 6], the figure is −20.9%.
In turn, `O=C(O)COCCc1ccc(F)cc1` [Compound 7] showed a melting point of 67 to 68 °C. Further, the “% Glucose Cmin (Rat)” value in series [1] was −41.9%.
Regarding `O=C(O)COCCc1ccccc1F` [Compound 8], the “% Glucose Cmin (Rat)” value in series [1] is −33.5%.
In turn, `O=C(O)COCCc1cccc(F)c1` [Compound 9] returned a melting point of 36 to 37 °C. Moreover, the “% Glucose Cmin (Rat)” value in series [1] was −29.3%.
On the same counts, the results for `Cc1ccc(COCC(=O)O)cc1` [Compound 10] are 44 to 45 °C and −46.6%.
On to `Cc1cccc(COCC(=O)O)c1` [Compound 11], for which, in series [1], the “% Glucose Cmin (Rat)” value is listed as −23.7%.
Turning to `O=C(O)COCc1ccc(Cl)cc1` [Compound 13], in series [1], the “% Glucose Cmin (Rat)” value is on record as −45.3%.
Still for that read-out and setting: next, `O=C(O)COCc1cccc(Cl)c1` [Compound 14]: −35.3%; `O=C(O)COCc1ccccc1Cl` [Compound 15]: −39.9%.
Still for that read-out and setting: next, `O=C(O)COCc1ccc(F)cc1` [Compound 16]: −18.1%.
Still for that read-out and setting: as for `O=C(O)COCc1cccc(F)c1` [Compound 17], the figure is −17.6%.
As to `O=C(O)COCc1ccccc1F` [Compound 18], in series [1], the “% Glucose Cmin (Rat)” value is reported as −14.6%.
Take `Cc1cc(C)c(COCC(=O)O)c(C)c1` [Compound 19, (2,4,6-Trimethyl-benzyloxy)-acetic acid]: the melting point fell in the range of 81 to 83 °C. Besides, in series [1], the “% Glucose Cmin (Rat)” value is −27.5%.
Take `Cc1cc(C)c(C)c(COCC(=O)O)c1C` [Compound 20]: the melting point lay in the range of 103 to 105 °C.
On to `Cc1ccc(C)c(COCC(=O)O)c1` [Compound 21], for which the melting point was 74 to 75 °C. Moreover, in series [1], the “% Glucose Cmin (Rat)” value is on record as −35.0%.
`Cc1ccc(COCC(=O)O)c(C)c1` [Compound 22]: the melting point was 54 to 56 °C.
Molecule `Cc1ccc(COCC(=O)O)cc1Cl` [Compound 23] came in with a melting point of 53 to 54 °C. Besides, in series [1], the “% Glucose Cmin (Rat)” value is on record as −5.5%.
In the same order, the values of `Cc1ccc(C)c(CCOCC(=O)O)c1` [Compound 24] are 42 to 43 °C and −24.7%.
In the same order, the values of `Cc1cc(C)cc(CCOCC(=O)O)c1` [Compound 25] are 50 to 51 °C and −4.6%.
For the molecule `O=C(O)COCCCCc1ccccc1` [Compound 26], the “% Glucose Cmin (Rat)” value in series [1] is listed as −21.0%.
Same read-out and setting: as for `O=C(O)COCCc1ccccc1C(F)(F)F` [Compound 27], the figure is −11.3%.
In the case of `COc1ccc(CCCCOCC(=O)O)cc1` [Compound 28], in series [1], the “% Glucose Cmin (Rat)” value was −10.6%.
Same read-out and setting: next, `COc1ccc(CCCOCC(=O)O)cc1` [Compound 29]: −36.3%; `Cc1ccc(CCCOCC(=O)O)cc1` [Compound 30]: −19.5%.
Same read-out and setting: next, `Cc1ccccc1CCCOCC(=O)O` [Compound 31]: −6.1%; `O=C(O)COCCCCCc1ccccc1` [Compound 32]: −15.1%.
As for `COc1ccc(CCOCC(=O)O)cc1` [Compound 33], the “% Glucose Cmin (Rat)” value in series [1] is on record as −9.8%.
In the case of `O=C(O)COCCc1ccccc1` [Compound 34], the “% Glucose Cmin (Rat)” value in series [1] is −32.2%.
The same measure, in the same setting: next, `O=C(O)COCCCc1ccccc1` [Compound 35]: −26.1%; `COc1ccccc1CCOCC(=O)O` [Compound 36]: −4.4%; `O=C(O)COCCc1ccc(F)cc1Cl` [Compound 37]: −30.0%.
The same measure, in the same setting: next, `O=C(O)COCCc1ccc(Br)cc1` [Compound 39]: −31.6%.
On the same count and under the same terms, next, `O=C(O)COC1Cc2ccccc2C1` [Compound 40]: −15.8%; `O=C(O)COC1CCc2ccccc21` (stereo not drawn) [Compound 41]: −27.8%; `O=C(O)COCCCc1ccc(Cl)cc1` [Compound 42]: −20.4%.
Turning to `O=C([O-])CCCCCCCNC(=O)c1ccccc1O.[Na+]` [Delivery Agent A, monosodium salt of N-(8-[2-hydroxybenzoyl]-amino)caprylic acid], in series [2], the “Mean Peak Plasma LMWH Concentration (IU/ml) ± SD” value amounted to 0.984 IU/ml.
